In patent US10765673B2, “Methods and compositions useful for treating diseases involving Bcl-2 family proteins with quinoline derivatives” (Eutropics Pharmaceuticals, Inc., priority 2012, dated 2020):

Assays:
DHL-10 = assay: In situ mitochondrial cytochrome c release assay, DHL-10; type: cell-based; conditions: DHL-10 (Bax/Bak-deficient), semi-permeabilized cells, 1 hour
Excerpt: (§1) The on-target activity of compound 12 was validated. Changes in mitochondrial integrity were observed utilizing anti-cytochrome c conjugated to Alexa488 (BD). When the mitochondria are intact, they retain cytochrome c and have bright, punctate staining with the antibody whereas cells with compromised mitochondrial integrity will lose cytochrome c and will not stain with the antibody. This can be observed by microscopy as well as measured by a shift in fluorescence on the FL1 channel of a flow cytometer.
(§2) The selective response of mitochondria in semi-permeabilized cell lines to the compounds was observed. The assay was adapted from (Campos et al. (2006) Cytometry Part A. 69(A):515-523, which is hereby incorporated by reference in its entirety).
(§3) Suspension cell lines SUDHL6, SUDHL8, and SUDHL10 were grown in RPMI, washed once in 1×PBS and re-suspended at a concentration of 2e6/ml in assay buffer with 0.0025% Digitonin. Assay buffer; 300 mM Trehalose, 10 mM HEPES-KOH pH 7.7, 80 mM KCl, 1 mM EGTA, 1 mM EDTA, 0.1% BSA. 5 mM Succinate. […] Cytochrome c loss was measured by microscopy. At least 100 cells per treatment were counted and scored as positive for cytochrome c loss if they lacked staining. In both methods DMSO was calculated as 0% cytochrome c loss and the Bim response for DHL6 was used to determine 100% cytochrome c loss.

DHL-6 = assay: In situ mitochondrial cytochrome c release assay, DHL-6; type: cell-based; conditions: DHL-6 (Bax/Bak-functional), semi-permeabilized cells, 1 hour
Excerpt: as §1, §2, §3

Mcl-1 1780 cell line = assay: DAPI fluorescence cell-based cytotoxicity (apoptosis) assay, Mcl-1 1780; set-up: species or system mouse; conditions: Mcl-1 1780, 24 hours, 125 nM to 1 μM
Procedure: (§4) The mouse leukemia-derived cell lines Mcl-1-1780 and Bcl-2-1863 (Ryan et al., Proc. Nat. Acad. Sci USA, 107, 12895-12900, which is hereby incorporated by reference in its entirety) were obtained under license from Dana Farber Cancer Institute. Cells were grown in RPMI 1640 medium (GIBCO-BRL) with 2 mM L-glutamine, 4.5 g/L glucose, 1.0 mM sodium pyruvate and 5% fetal bovine serum. Cells were expanded in tissue culture in appropriate media and then sub-cultured into 96-well plates at a seeding density of 20,000 cells per well. After incubation for 24 hours, cells were treated with compounds that are titrated into appropriate medium with FCS. Four concentrations of compound were used: 1 μM, 500 nM, 250 nM, and 125 nM. Assay was run in triplicate for each compound at each concentration and averages were calculated. Cells were treated with compound for 24 hours, then fixed with methanol and stained with the DNA-binding agent DAPI (4′,6-diamidino-2-phenylindole). The cells were then examined by fluorescent microscopy; cells in which caspase 3 and caspase 7 have not been activated will emit at […] when excited by […] light. Caspase-mediated cleavage of nucleosomal proteins causes condensed, pyenotic nuclear morphology that may be measured by cell counting.

Bcl-2 1863 cell line = assay: DAPI fluorescence cell-based cytotoxicity (apoptosis) assay, Bcl-2 1863; set-up: species or system mouse; conditions: Bcl-2 1863, 24 hours, 125 nM to 1 μM
Procedure: as §4

DHL-8 = assay: In situ mitochondrial cytochrome c release assay, DHL-8; type: cell-based; conditions: DHL-8, semi-permeabilized cells, 1 hour
Excerpt: as §1, §2, §3

CCN1CCN(C(c2ccc(C(F)(F)F)cc2)c2ccc3cccnc3c2O)CC1 (centres unmarked) [compound 12, 7-((4-ethylpiperazin-1-yl)(4-(trifluoromethyl)phenyl)methyl)quinolin-8-ol]
cytochrome c release (DHL-10): lack of activity | cytochrome c release (DHL-6): activity | induction of apoptosis (cells exhibiting apoptosis) (Mcl-1 1780 cell line): induce apoptosis | induction of apoptosis (cells exhibiting apoptosis) (Bcl-2 1863 cell line): significantly lesser degree | cytochrome c release (DHL-8): reduced activity
